Data: paper PMC10599993, “The PTPN2/PTPN1 inhibitor ABBV-CLS-484 unleashes potent anti-tumour immunity” (Nature, 2023)

What was measured:
PTPN2 = target: T1, PTPN2 (Homo sapiens, UniProt P17706); experiment: mobility shift enzyme assay with labelled insulin receptor phosphopeptide; assay type: biochemical
T1 construct: full-length recombinant

PTPN1 = target: T2, PTPN1 (Homo sapiens, UniProt P18031); experiment: as above; assay type: biochemical
T2 construct: full-length recombinant
T2 sequence (P18031 whole entry): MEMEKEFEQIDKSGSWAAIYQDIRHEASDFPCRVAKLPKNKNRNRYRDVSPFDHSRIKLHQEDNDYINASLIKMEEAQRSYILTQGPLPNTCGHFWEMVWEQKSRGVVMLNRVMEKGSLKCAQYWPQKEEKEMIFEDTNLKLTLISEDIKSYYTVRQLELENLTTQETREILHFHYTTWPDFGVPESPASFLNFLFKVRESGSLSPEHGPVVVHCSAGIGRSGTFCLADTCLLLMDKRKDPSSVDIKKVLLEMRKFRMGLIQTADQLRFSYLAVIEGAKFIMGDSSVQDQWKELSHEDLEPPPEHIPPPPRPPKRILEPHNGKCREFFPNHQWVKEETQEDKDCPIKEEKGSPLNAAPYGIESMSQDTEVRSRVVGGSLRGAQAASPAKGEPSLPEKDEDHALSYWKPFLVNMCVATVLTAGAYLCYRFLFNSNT

T1 sequence (P17706 whole entry): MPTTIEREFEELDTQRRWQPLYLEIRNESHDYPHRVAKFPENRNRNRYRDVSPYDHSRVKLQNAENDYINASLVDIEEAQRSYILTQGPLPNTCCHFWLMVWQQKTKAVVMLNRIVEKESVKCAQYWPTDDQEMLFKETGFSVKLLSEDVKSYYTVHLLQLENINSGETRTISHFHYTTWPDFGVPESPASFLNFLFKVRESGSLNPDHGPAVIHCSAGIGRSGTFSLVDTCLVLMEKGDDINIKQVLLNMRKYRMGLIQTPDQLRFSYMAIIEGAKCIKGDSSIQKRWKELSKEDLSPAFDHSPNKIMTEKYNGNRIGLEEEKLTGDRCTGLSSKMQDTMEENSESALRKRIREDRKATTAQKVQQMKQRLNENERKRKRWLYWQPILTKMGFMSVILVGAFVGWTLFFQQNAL

O=C1CN(c2c(O)cc3ccc(NCC4CC4)cc3c2F)S(=O)(=O)N1 [A-650]
IC50 (PTPN2): 3.9 nM | IC50 (PTPN1): 2.8 nM
